Results on eight compounds are retold here after patent US20140363386A1, “DUALISTIC MOLECULES HAVING UV RADIATION FILTRATING ABILITY AT WIDE SPECTRUM AND POTENT DAMPING ACTIVITY OF THE REACTIVITY OF FREE RADICALS (RADICAL SCAVENGING)” (UNIVERSITA DEGLI STUDI FERRARA, priority 2012, published 2014).

Series [1] can be described thus: maximum wavelength absorbable (λ max), UV absorption. The class given is physicochemical. The note with it: for λ max: pH between 7.4 and 8 in a phosphate buffer. How it is done: Moreover, the compound object of the present invention recorded a significant increase in the maximum wavelength absorbable (λ max) with respect to 2-phenyl-1H-benzimidazole-5-sulfonic acid, which has been taken as reference.
Some examples are given in table 2, in which the λ max were measured at pH comprised between 7.4 and 8 in a phosphate buffer.
In 5 ml of ethanol 100 mg of 3,4-diamine-benzenesulfonic acid sulfate salt (0.35 mmol), 48 mg of 3,4 dihydroxybenzaldehyde (0.35 mmol) and 0.7 ml of sodium bisulfite solution 1N (0.7 mmol) were mixed. The reaction mixture was placed at 80° C. for 24 hours. After having evaporated the solvents, the raw product was treated with 5 ml of solution 5M of HCl. The precipitate was then filtered and the product recrystallized from methanol.

A short description of series [2]: in vitro spectrophotometric determination of solar protection parameters of standard formulations (Diffey and Robson). To be noted: standard formulation containing the compound at 3%. An excerpt: Determining the UVA/UVB ratio is a parameter that is mostly independent from the SPF value that provides a clear indication of the protective power of the solar product against UVA rays. According to the Boots scale, when the value of such a ratio is comprised between 0.6 and 0.8 the product offers a high UVA protection, when the value is greater than 0.8 the UVA protection is considered to be its maximum.
The critical λ is an important instrumental parameter for evaluating the protective power of the solar product against UVA rays: when the critical λ is greater than 370 nm the product offers protection over a wide spectrum.
Determining the solar protection parameters was carried out through in vitro tests that foresee the use of spectrophotometric techniques, according to the international protocol Diffey and Robson (B. L. Diffey, J. Robson, J. Soc. Cosm. Chem., 1989, 40: 127-133).
As well as 2-phenyl-1H-benzimidazole-5-sulfonic acid, as reference product with which to compare the data a commercial filter (Neo Heliopan® AP) was also used, known to be a water-soluble exclusively UVA filter with critical λ greater than 370 nm. The results of some standard formulations containing a compound according to the present invention are given as an example in table 3.
(§1) Standard Formulation 3% Prepared at pH 7.2-7.6

A short description of series [3]: PCL (Photochemiluminescence) analysis of the compounds. The class given is biochemical. To be noted: anti-oxidant activity, Trolox equivalents; photo-induced auto-oxidation of luminol. The method, then:
(§2) The compound object of the present invention was tested through different in vitro tests that complement one another, in order to evaluate its ability to counteract different radical species.
(§3) In particular, the DPPH test, based on the measurement of the reducing activity of anti-oxidant molecules against the radical DPPH (2,2-diphenyl-1-picrylhydrazyl), the FRAP (Ferric Reducing/Antioxidant Power) test, which measures the ability of an anti-oxidant to reduce the Fe^3+ ions to Fe^2+ ions in acid conditions and in the presence of TPTZ (2,4,6-tripyridyl-triazine) and PCL (Photochemiluminescence) analysis, which allows measurement of the inhibition by the anti-oxidants of photo-induced auto-oxidation of the luminol promoted by the superoxide anion, were used.
(§4) In table 1, in which the values are expressed in μmol Trolox/mmol compound, some examples are given.

The nature of series [4]: FRAP (Ferric Reducing/Antioxidant Power) test. Type of series: biochemical. The note with it: anti-oxidant activity, Trolox equivalents; acid conditions, TPTZ. The method, then: as §2, §3, §4
Series [5] is described as follows: DPPH test: reducing activity of anti-oxidant molecules against the radical DPPH. The class given is biochemical. The note with it: Trolox equivalents. How it is done: as §2, §3, §4
Series [6] in a line: PCL analysis of anti-oxidant activity of standard formulations. The note with it: standard formulation containing the compound at 3%. The class given is biochemical.
From the text: as §3
We then proceeded to measure the anti-oxidant activity through PCL analysis of the standard formulations containing a compound according to the present invention at the concentration of 3%. Such an anti-oxidant activity was measured in order to compare it with the reference molecules.
as §1

For series [7] the following is noted: known property of the commercial filter; cited from earlier work.

Molecules are shown by their SMILES.

In series [1], `Oc1ccc(-c2nc3ccccc3[nH]2)c(O)c1` [2-(2,4-Dihydroxy-phenyl)-1H-benzimidazole] returned a λ max of 315.5 nm. In addition, in series [2], the SPF is 4.85 ± 0.71; the “UVA/UVB (ratio between UVA absorbance and UVB absorbance)” value is listed as 1.31 ± 0.04; the λ critical is 379.5 nm. Further, the PCL in series [3] was found to be 198 ± 3 μmol Trolox/mmol compound. Moreover, the FRAP in series [4] came out at 37.3 ± 0.3 μmol Trolox/mmol compound. Moreover, in series [5], the DPPH turned out to be 16.5 ± 0.5 μmol Trolox/mmol compound. Besides, in series [6], the “anti-oxidant activity through PCL analysis” value was 8.66 ± 0.04 μmol Trolox/g cosmetic formulation.

For `O=C(O)c1ccc2[nH]c(-c3ccc(O)cc3O)nc2c1` [2-(2,4-Dihydroxy-phenyl)-1H-benzoimidazole-5-carboxylic acid], the λ max in series [1] worked out at 321.5 nm. In series [2], the SPF is given as 4.70 ± 0.62; the “UVA/UVB (ratio between UVA absorbance and UVB absorbance)” value is listed as 1.48 ± 0.03; the λ critical came to 369.5 nm. In addition, the PCL in series [3] is recorded as 160 ± 4 μmol Trolox/mmol compound. The FRAP in series [4] worked out at 31.6 ± 1.7 μmol Trolox/mmol compound. Also, the DPPH in series [5] amounted to 32.2 ± 2.1 μmol Trolox/mmol compound. Further, the “anti-oxidant activity through PCL analysis” value in series [6] is recorded as 4.97 ± 0.17 μmol Trolox/g cosmetic formulation.

The compound `Oc1ccc(-c2nc3ccccc3[nH]2)cc1O` [2-(3,4-Dihydroxy-phenyl)-1H-benzimidazole] gave a λ max in series [1] of 311 nm. In series [2], the SPF worked out at 7.07 ± 1.36; the “UVA/UVB (ratio between UVA absorbance and UVB absorbance)” value is 0.93 ± 0.02; the λ critical is given as 367.5 nm. Moreover, the PCL in series [3] is reported as 27442 ± 329 μmol Trolox/mmol compound. Also, the FRAP in series [4] stood at 2523 ± 29 μmol Trolox/mmol compound. Besides, in series [5], the DPPH was determined as 1975 ± 15 μmol Trolox/mmol compound. Moreover, the “anti-oxidant activity through PCL analysis” value in series [6] is reported as 760 ± 5 μmol Trolox/g cosmetic formulation.

With `O=C(O)c1ccc2[nH]c(-c3ccc(O)c(O)c3)nc2c1` [2-(3,4-Dihydroxy-phenyl)-1H-benzoimidazole-5-carboxylic acid], in series [1], the λ max is given as 317 nm. Besides, in series [2], the SPF is given as 9.82 ± 1.30; the “UVA/UVB (ratio between UVA absorbance and UVB absorbance)” value is 1.21 ± 0.04; the λ critical turned out to be 369.5 nm. In series [3], the PCL worked out at 22014 ± 360 μmol Trolox/mmol compound. Besides, in series [4], the FRAP was 1803 ± 22 μmol Trolox/mmol compound. Further, in series [5], the DPPH is on record as 1772 ± 75 μmol Trolox/mmol compound. The “anti-oxidant activity through PCL analysis” value in series [6] is on record as 383 ± 18 μmol Trolox/g cosmetic formulation.

In series [1], `O=S(=O)(O)c1ccc2[nH]c(-c3ccc(O)c(O)c3)nc2c1` [2-(3,4-dihydroxy-phenyl)-1H-benzoimidazole-5-sulfonic acid] gave a λ max of 313.5 nm. The “maximum absorption in the UV region” value in series [1] (product of Example 1, medium not stated) worked out at 313 nm. In series [2], the SPF worked out at 13.36 ± 2.20; the “UVA/UVB (ratio between UVA absorbance and UVB absorbance)” value was determined as 0.88 ± 0.04; the λ critical was determined as 358.5 nm. Moreover, in series [3], the PCL stood at 27855 ± 764 μmol Trolox/mmol compound. Also, the FRAP in series [4] came to 2313 ± 26 μmol Trolox/mmol compound. In series [5], the DPPH worked out at 2145 ± 40 μmol Trolox/mmol compound. Besides, the “anti-oxidant activity through PCL analysis” value in series [6] is given as 725 ± 3 μmol Trolox/g cosmetic formulation.

In turn, `O=C(O)c1ccc2[nH]c(-c3ccc(O)cc3)nc2c1` [2-(4-Hydroxy-phenyl)-1H-benzoimidazole-5-carboxylic acid] came in with a λ max in series [1] of 312.5 nm. In series [2], the SPF is recorded as 8.42 ± 1.55; the “UVA/UVB (ratio between UVA absorbance and UVB absorbance)” value is 0.89 ± 0.05; the λ critical was 350 nm. The PCL in series [3] is listed as 7 ± 0.3 μmol Trolox/mmol compound. Also, in series [4], the FRAP was determined as 2.62 ± 0.06 μmol Trolox/mmol compound. Also, the DPPH in series [5] stood at 1.19 ± 0.02 μmol Trolox/mmol compound. In series [6], the “anti-oxidant activity through PCL analysis” value is 0.16 ± 0.02 μmol Trolox/g cosmetic formulation.

In the case of `O=S(=O)(O)c1ccc2[nH]c(-c3ccccc3)nc2c1` [2-phenyl-1H-benzimidazole-5-sulfonic acid, reference compound], in series [1], the λ max is on record as 302.5 nm. Besides, in series [2], the SPF amounted to 6.33 ± 1.24; the “UVA/UVB (ratio between UVA absorbance and UVB absorbance)” value came out at 0.31 ± 0.06; the λ critical is reported as 333 nm. Moreover, the PCL in series [3] is <0 μmol Trolox/mmol compound. Also, the FRAP in series [4] stood at 0.79 ± 0.05 μmol Trolox/mmol compound. The DPPH in series [5] came out at 4.40 ± 0.03 μmol Trolox/mmol compound. Also, the “anti-oxidant activity through PCL analysis” value in series [6] is 0 μmol Trolox/g cosmetic formulation.

On to `O=S(=O)([O-])c1cc(S(=O)(=O)O)cc2[nH]c(-c3ccc(-c4nc5c(S(=O)(=O)[O-])cc(S(=O)(=O)O)cc5[nH]4)cc3)nc12.[Na+].[Na+]` [Neo Heliopan ® AP, reference compound], for which, in series [2], the SPF was determined as 4.59 ± 0.37; the “UVA/UVB (ratio between UVA absorbance and UVB absorbance)” value is 2.46 ± 0.12; the λ critical came to 371 nm. Further, the “critical λ” value in series [7] is “greater than 370 nm”. Further, the “anti-oxidant activity through PCL analysis” value in series [6] is reported as 0 μmol Trolox/g cosmetic formulation.
